Common to all, as to assay: relative viability (nuclei count vs DMSO), 5 days (fraction); higher = more cells survive
Compound in assay [1]: C=C(c1ccc(C(=O)O)cc1)c1cc2c(cc1C)C(C)(C)CCC2(C)C [Bexarotene] + CC(=O)c1c(C)c2cnc(Nc3ccc(N4CCNCC4)cn3)nc2n(C2CCCC2)c1=O [Palbociclib] (partner 0.5 µM)
The essentials:
(§1)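 Lung cancer cell lines were seeded in 1536-well plates and dosed by pin tool the next day, with either a single drug or a fixed anchor-drug dose combined with five library-drug doses (not always all listed) spaced in √10 steps. Five days later, one step fixed the cells and stained their nuclei (final 0.05% Triton X-100, 1% formaldehyde, 1 ug/ml Hoechst), and nuclei were counted on 4× images. Relative viability is the nuclei count in treated wells divided by the count in vehicle wells, and each value is the median of duplicate plates.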

Compound in assay [2]: C=C(c1ccc(C(=O)O)cc1)c1cc2c(cc1C)C(C)(C)CCC2(C)C [Bexarotene] + CC(C)C[C@H](NC(=O)[C@H](Cc1ccccc1)NC(=O)c1cnccn1)B(O)O [Bortezomib] (partner 0.002 µM)
The method in brief: as §1

Compound in assay [3]: C=C(c1ccc(C(=O)O)cc1)c1cc2c(cc1C)C(C)(C)CCC2(C)C [Bexarotene] + Cc1nc(Nc2ncc(C(=O)Nc3c(C)cccc3Cl)s2)cc(N2CCN(CCO)CC2)n1 [Dasatinib] (partner 0.075 µM)
The essentials:
as §1

Compound in assay [4]: C=C(c1ccc(C(=O)O)cc1)c1cc2c(cc1C)C(C)(C)CCC2(C)C [Bexarotene] + Cc1nc(NC(=O)N2CCC[C@H]2C(N)=O)sc1-c1ccnc(C(C)(C)C(F)(F)F)c1 [Alpelisib] (partner 2 µM)
The method in brief: as §1

As to NCI-H1651, the relative viability in assay [1] (first compound 0.08 µM) came to 0.531; in assay [1] (first compound 0.253 µM), 0.521; in assay [1] (first compound 0.8 µM) it was 0.533; in assay [1] (first compound 2.53 µM), 0.537; in assay [1] (first compound 8 µM) it was 0.534; in assay [2] (first compound 0.08 µM), 1.14. The relative viability in assay [2] (first compound 0.253 µM) worked out at 0.843; in assay [2] (first compound 0.8 µM) it was 0.965; in assay [2] (first compound 2.53 µM) it was 0.944; in assay [2] (first compound 8 µM), 1.04; in assay [3] (first compound 0.08 µM), 0.518; in assay [3] (first compound 0.253 µM) it was 0.551. Besides, the relative viability came to 0.363 in assay [3] (first compound 0.8 µM); 0.458 in assay [3] (first compound 2.53 µM); 0.374 in assay [3] (first compound 8 µM); 1 in assay [4] (first compound 0.08 µM); 1 in assay [4] (first compound 0.253 µM); 1.09 in assay [4] (first compound 0.8 µM). For the same cell line, the figures for the relative viability in assay [4] (first compound 2.53 µM) and in assay [4] (first compound 8 µM) were 0.997 and 0.921, respectively.
Take LCLC-103H: the relative viability in assay [1] (first compound 0.08 µM) turned out to be 0.495; in assay [1] (first compound 0.253 µM) it was 0.544; in assay [1] (first compound 0.8 µM) it was 0.453; in assay [1] (first compound 2.53 µM), 0.476; in assay [1] (first compound 8 µM), 0.475; in assay [2] (first compound 0.08 µM), 1.07. For the same cell line, the relative viability was 1.03 in assay [2] (first compound 0.253 µM); 0.863 in assay [2] (first compound 0.8 µM); 1.11 in assay [2] (first compound 2.53 µM); 1.23 in assay [2] (first compound 8 µM); 0.489 in assay [3] (first compound 0.08 µM); 0.567 in assay [3] (first compound 0.253 µM). For the same cell line, the relative viability in assay [3] (first compound 0.8 µM) was 0.419; in assay [3] (first compound 2.53 µM) it was 0.525; in assay [3] (first compound 8 µM) it was 0.49; in assay [4] (first compound 0.08 µM), 1.03; in assay [4] (first compound 0.253 µM), 0.968; in assay [4] (first compound 0.8 µM) it was 1.04. For the same cell line, the relative viability is 1.09 in assay [4] (first compound 2.53 µM) and 0.993 in assay [4] (first compound 8 µM).
Turning to NCI-H1666, the relative viability in assay [1] (first compound 0.08 µM) amounted to 0.618; in assay [1] (first compound 0.253 µM) it was 0.746; in assay [1] (first compound 0.8 µM), 0.545; in assay [1] (first compound 2.53 µM) it was 0.631; in assay [1] (first compound 8 µM), 0.565; in assay [2] (first compound 0.08 µM), 0.742. The relative viability is 0.701 in assay [2] (first compound 0.253 µM); 0.727 in assay [2] (first compound 0.8 µM); 0.719 in assay [2] (first compound 2.53 µM); 0.75 in assay [2] (first compound 8 µM); 0.793 in assay [3] (first compound 0.08 µM); 0.826 in assay [3] (first compound 0.253 µM). The relative viability in assay [3] (first compound 0.8 µM) was 0.783; in assay [3] (first compound 2.53 µM) it was 0.788; in assay [3] (first compound 8 µM), 0.77; in assay [4] (first compound 0.08 µM), 1; in assay [4] (first compound 0.253 µM) it was 0.877; in assay [4] (first compound 0.8 µM), 0.862. The relative viability in assay [4] (first compound 2.53 µM) stood at 0.897; in assay [4] (first compound 8 µM) it was 0.761.
Consider NCI-H1734, for which the relative viability in assay [1] (first compound 0.08 µM) was determined as 0.333; in assay [1] (first compound 0.253 µM) it was 0.33; in assay [1] (first compound 0.8 µM), 0.292; in assay [1] (first compound 2.53 µM), 0.282; in assay [1] (first compound 8 µM), 0.318; in assay [2] (first compound 0.08 µM) it was 0.896. Also, the relative viability in assay [2] (first compound 0.253 µM) amounted to 0.98; in assay [2] (first compound 0.8 µM) it was 0.936; in assay [2] (first compound 2.53 µM) it was 0.87; in assay [2] (first compound 8 µM), 0.818; in assay [3] (first compound 0.08 µM) it was 0.478; in assay [3] (first compound 0.253 µM), 0.484. The relative viability in assay [3] (first compound 0.8 µM) worked out at 0.412; in assay [3] (first compound 2.53 µM), 0.411; in assay [3] (first compound 8 µM), 0.46; in assay [4] (first compound 0.08 µM) it was 0.718; in assay [4] (first compound 0.253 µM), 0.708; in assay [4] (first compound 0.8 µM) it was 0.652. For the same cell line, the relative viability worked out at 0.637 in assay [4] (first compound 2.53 µM) and 0.633 in assay [4] (first compound 8 µM).

For the origin of these results see the supplement of paper PMC10307832.
